Data as given in patent US7795294B2, “Tetrahydro-2H-indazole pyrazole cannabinoid modulators” (Janssen Pharmaceutica N.V., priority 2006, dated 2010).
Like-named read-outs stand apart in the source and are kept apart here.

Columns and labels:
[1] = target: T1, human CB2 receptor (Homo sapiens, UniProt P34972); assay: Binding assay for CB2 agonists or inverse agonists, [3H]-CP-55,940 displacement on membranes of transfected SK-N-MC cells
T1 construct: expressed in transfected cells; host or cells: SK-N-MC cells, stably transfected with pcDNA3 CB-2 (human); semi-purified membrane pellet
Experimental: (§1) The human CB1 and CB2 receptors were stably expressed in SK-N-MC cells transfected with pcDNA3 CB-1 (human) or pcDNA3 CB-2 (human). The cells were grown in T-180 cell culture flasks under standard cell culture conditions at 37° C. in a 5% CO2 atmosphere. The cells were harvested by trysinization and homogenized in a homogenization buffer (10 mM Tris, 0.2 mM MgCl2, 5 mM KCl, with protease inhibitors aprotinin, leupeptin, pepstatin A and bacitracin) and centrifuged (2000 g). The supernatant was then centrifuged in 2M sucrose (31,300 g) to produce a semi-purified membrane pellet. The pellet was resuspended in homogenization and stored at −80° C.
(§2) On the day of the assay, the pellet was thawed on ice and diluted in assay buffer (50 mM Tris-HCl, 5 mM MgCl2, 2.5 mM EDTA, 0.5 mg/mL fatty acid free bovine serum albumin, pH 7.5). […] The plate was covered and incubated for 90 minutes at 30° C. The contents were then aspirated onto a Packard Unifilter GF/C filter bottom plate prewet with 0.5% polyethyleneimine. The wells of the polypropylene plate were rinsed and aspirated seven times with a 0.9% saline-0.5% Tween 20 solution. The Unifilter plate was dried, a scintillation cocktail was added to each well and the counts representing binding were quantitated in a TopCount scintillation counter.
(§3) For compounds tested, an IC50 binding value was obtained from percent inhibition studies in which various test concentrations were used. The binding value was calculated by linear regression. An average value is shown for those compounds where two or more IC50 values were obtained.
(§4) An average value is shown for those compounds where two or more percent inhibition values were obtained.

[2] = target: T2, human CB1 receptor (Homo sapiens, UniProt P21554); assay: Binding assay for CB1 agonists or inverse agonists, [3H]-CP-55,940 displacement on membranes of transfected SK-N-MC cells; conditions: for inhibition at 0.2 µM: read-out: Cannabinoid CB1 Receptor Binding percent inhibition
T2 construct: expressed in transfected cells; host or cells: SK-N-MC cells, stably transfected with pcDNA3 CB-1 (human); semi-purified membrane pellet
Experimental: as §1, §2, §3, §4

[3] = read-out: Cannabinoid CB2 Receptor Binding percent inhibition

T2 sequence (P21554 whole entry): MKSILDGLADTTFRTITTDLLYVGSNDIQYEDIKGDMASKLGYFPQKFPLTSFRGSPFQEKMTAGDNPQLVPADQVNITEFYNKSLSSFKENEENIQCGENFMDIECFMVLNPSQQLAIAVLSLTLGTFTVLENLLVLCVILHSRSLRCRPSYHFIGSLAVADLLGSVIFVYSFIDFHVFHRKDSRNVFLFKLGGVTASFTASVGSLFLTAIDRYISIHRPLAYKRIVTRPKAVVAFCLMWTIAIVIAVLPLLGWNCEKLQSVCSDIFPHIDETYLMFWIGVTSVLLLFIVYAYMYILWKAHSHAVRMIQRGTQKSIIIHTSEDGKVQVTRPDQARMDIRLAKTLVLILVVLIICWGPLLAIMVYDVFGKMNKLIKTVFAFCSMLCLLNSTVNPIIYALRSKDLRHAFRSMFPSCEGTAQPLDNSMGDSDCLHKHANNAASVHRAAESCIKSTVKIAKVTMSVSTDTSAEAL
T1 sequence (P34972 whole entry): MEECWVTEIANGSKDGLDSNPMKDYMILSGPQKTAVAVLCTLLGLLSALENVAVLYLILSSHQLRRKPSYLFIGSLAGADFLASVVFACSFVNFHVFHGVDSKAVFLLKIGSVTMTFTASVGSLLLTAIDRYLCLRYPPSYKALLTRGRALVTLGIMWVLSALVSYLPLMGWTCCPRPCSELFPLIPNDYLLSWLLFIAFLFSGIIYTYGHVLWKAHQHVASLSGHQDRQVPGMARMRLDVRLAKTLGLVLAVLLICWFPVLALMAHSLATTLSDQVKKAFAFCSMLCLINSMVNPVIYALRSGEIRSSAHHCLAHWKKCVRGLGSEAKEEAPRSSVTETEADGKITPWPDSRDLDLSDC

SMILES | inhibition at 0.2 µM [1, 3] [%] | IC50 [2] [nM] | IC50 [1] [nM] | further results
C[C@@H](NC(=O)[C@@H]1CCCc2c1nn(-c1ccc(Cl)cc1Cl)c2-c1ccc(Br)s1)c1ccccc1 [Cpd 53, (7R)-3-(5-bromo-thiophen-2-yl)-2-(2,4-dichloro-phenyl)-4,5,6,7-tetrahydro-2H-indazole-7-carboxylic acid [(1R)-1-phenyl-ethyl]-amide] | 36 | 4 |  | 
C[C@@H](NC(=O)[C@H]1CCCc2c1nn(-c1ccc(Cl)cc1Cl)c2-c1ccc(Cl)s1)c1ccccc1 [Cpd 48, (7S)-3-(5-chloro-thiophen-2-yl)-2-(2,4-dichloro-phenyl)-4,5,6,7-tetrahydro-2H-indazole-7-carboxylic acid [(1R)-1-phenyl-ethyl]-amide] | 0 |  |  | inhibition at 0.2 µM [2]: 38%
O=C(NN1CCCCC1)[C@@H]1CCCc2c1nn(-c1ccc(Cl)cc1Cl)c2-c1ccc(Br)cc1 [Cpd 51, (7R)-3-(4-bromo-phenyl)-2-(2,4-dichloro-phenyl)-4,5,6,7-tetrahydro-2H-indazole-7-carboxylic acid piperidin-1-ylamide] | 27 | 14 |  | 
C[C@@H](NC(=O)[C@H]1CCCc2c1nn(-c1ccc(Cl)cc1Cl)c2-c1ccc(Br)s1)C1CCCCC1 [Cpd 54, (7S)-3-(5-bromo-thiophen-2-yl)-2-(2,4-dichloro-phenyl)-4,5,6,7-tetrahydro-2H-indazole-7-carboxylic acid [(1R)-1-cyclohexyl-ethyl]-amide] | 12 |  |  | inhibition at 0.2 µM [2]: 35%
O=C(N[C@H](CO)c1ccccc1)[C@@H]1CCCc2c1nn(-c1ccc(Cl)cc1Cl)c2-c1ccc(Br)s1 [Cpd 57, (7R)-3-(5-bromo-thiophen-2-yl)-2-(2,4-dichloro-phenyl)-4,5,6,7-tetrahydro-2H-indazole-7-carboxylic acid [(1S)-2-hydroxy-1-phenyl-ethyl]-amide] |  | 300 | 300 | 
COc1ccc(-c2c3c(nn2-c2ccc(Cl)cc2Cl)C(C(=O)NN(C)c2ccccc2)CCC3)cc1 (stereo not drawn) [Cpd 26, 2-(2,4-dichloro-phenyl)-3-(4-methoxy-phenyl)-4,5,6,7-tetrahydro-2H-indazole-7-carboxylic acid N′-methyl-N′-phenyl-hydrazide] | 32 | 6 |  | 
CC12CCC(C1)C(C)(C)C2NC(=O)C1CCCc2c1nn(Cc1ccccc1)c2-c1ccc(Cl)cc1 (stereo not drawn) [Cpd 4, 2-benzyl-3-(4-chloro-phenyl)-4,5,6,7-tetrahydro-2H-indazole-7-carboxylic acid (1,3,3-trimethyl-bicyclo[2.2.1]hept-2-yl)-amide] |  | 5520 | 3900 | 
COc1ccc(-c2c3c(nn2-c2ccc(Cl)cc2Cl)C(C(=O)N[C@H](C)c2ccccn2)CCC3)cc1 (stereo partly drawn) [Cpd 27, 2-(2,4-dichloro-phenyl)-3-(4-methoxy-phenyl)-4,5,6,7-tetrahydro-2H-indazole-7-carboxylic acid [(1R)-1-pyridin-2-yl-ethyl]-amide] |  | 31 |  | 
C[C@@H](NC(=O)[C@@H]1CCCc2c1nn(-c1ccc(Cl)cc1Cl)c2-c1ccc(Br)s1)C1CCCCC1 [Cpd 55, (7R)-3-(5-bromo-thiophen-2-yl)-2-(2,4-dichloro-phenyl)-4,5,6,7-tetrahydro-2H-indazole-7-carboxylic acid [(1R)-1-cyclohexyl-ethyl]-amide] | 27 | 3 |  | 
C[C@@H](NC(=O)[C@H]1CCCc2c1nn(-c1ccc(Cl)cc1Cl)c2-c1ccc(Br)s1)c1ccccc1 [Cpd 52, (7S)-3-(5-bromo-thiophen-2-yl)-2-(2,4-dichloro-phenyl)-4,5,6,7-tetrahydro-2H-indazole-7-carboxylic acid [(1R)-1-phenyl-ethyl]-amide] | 20 |  |  | inhibition at 0.2 µM [2]: 44%
COc1ccc(-n2nc3c(c2-c2ccc(C)cc2)CCCC3C(=O)N[C@@H]2C3CCC(C3)[C@@H]2CO)cc1 (stereo partly drawn) [Cpd 17, 2-(4-methoxy-phenyl)-3-p-tolyl-4,5,6,7-tetrahydro-2H-indazole-7-carboxylic acid [(2R,3S)-3-hydroxymethyl-bicyclo[2.2.1]hept-2-yl]-amide] |  | 1800 | 1570 | 
CN(NC(=O)C1CCCc2c1nn(-c1ccc(Cl)cc1Cl)c2-c1ccc(Cl)cc1)c1ccccc1 (stereo not drawn) [Cpd 35, 3-(4-chloro-phenyl)-2-(2,4-dichloro-phenyl)-4,5,6,7-tetrahydro-2H-indazole-7-carboxylic acid N′-methyl-N′-phenyl-hydrazide] | 3 | 2 |  | 
COc1ccc(-c2c3c(nn2-c2ccc(Cl)cc2Cl)C(C(=O)N[C@H](C)c2ccccc2)CCC3)cc1 (stereo partly drawn) [Cpd 23, 2-(2,4-dichloro-phenyl)-3-(4-methoxy-phenyl)-4,5,6,7-tetrahydro-2H-indazole-7-carboxylic acid [(1R)-1-phenyl-ethyl]-amide] | 28 | 8 |  | 
Cc1ccc(-c2c3c(nn2Cc2ccccc2)C(C(=O)NC(C)C2CCCCC2)CCC3)cc1 (stereo not drawn) [Cpd 8, 2-benzyl-3-p-tolyl-4,5,6,7-tetrahydro-2H-indazole-7-carboxylic acid (1-cyclohexyl-ethyl)-amide] |  | 240 | 1100 | 
COc1ccc(-n2nc3c(c2-c2ccc(C)cc2)CCCC3C(=O)N[C@H]2C3(C)CCC(C3)C2(C)C)cc1 (stereo partly drawn) [Cpd 16, 2-(4-methoxy-phenyl)-3-p-tolyl-4,5,6,7-tetrahydro-2H-indazole-7-carboxylic acid [(2S)-1,3,3-trimethyl-bicyclo[2.2.1]hept-2-yl]-amide] |  |  |  | inhibition at 25 µM [1, 3]: 66%; IC50 ([2]; radioligand CP-55,940 0.2 nM, average where two or more values, read-out: Cannabinoid CB1 Receptor Binding IC50): 180 nM
O=C(NN1CCCCC1)C1CCCc2c1nn(-c1ccc(Cl)cc1Cl)c2-c1ccc(Cl)cc1 (stereo not drawn) [Cpd 33, 3-(4-chloro-phenyl)-2-(2,4-dichloro-phenyl)-4,5,6,7-tetrahydro-2H-indazole-7-carboxylic acid piperidin-1-ylamide] | 0 | 39 |  | 
Cc1ccc(-c2c3c(nn2Cc2ccccc2)C(C(=O)NC2C4(C)CCC(C4)C2(C)C)CCC3)cc1 (stereo not drawn) [Cpd 6, 2-benzyl-3-p-tolyl-4,5,6,7-tetrahydro-2H-indazole-7-carboxylic acid (1,3,3-trimethyl-bicyclo[2.2.1]hept-2-yl)-amide] |  | 400 | 840 | 
CC12CCC(C1)C(C)(C)[C@H]2NC(=O)C1CCCc2c1nn(Cc1ccccc1)c2-c1cccc(F)c1 (stereo partly drawn) [Cpd 19, 2-benzyl-3-(3-fluoro-phenyl)-4,5,6,7-tetrahydro-2H-indazole-7-carboxylic acid [(2S)-1,3,3-trimethyl-bicyclo[2.2.1]hept-2-yl]-amide] |  | 400 | 290 | 
C[C@@H](NC(=O)[C@H]1CCCc2c1nn(-c1ccc(Cl)cc1Cl)c2-c1ccc(Br)cc1)c1ccccc1 [Cpd 45, (7S)-3-(4-bromo-phenyl)-2-(2,4-dichloro-phenyl)-4,5,6,7-tetrahydro-2H-indazole-7-carboxylic acid [(1R)-1-phenyl-ethyl]-amide] | 11 |  |  | inhibition at 0.2 µM [2]: 66%
C[C@@H](NC(=O)C1CCCc2c1nn(-c1ccc(Cl)cc1Cl)c2-c1ccc(F)cc1)C1CCCCC1 (stereo partly drawn) [Cpd 36, 2-(2,4-dichloro-phenyl)-3-(4-fluoro-phenyl)-4,5,6,7-tetrahydro-2H-indazole-7-carboxylic acid [(1R)-1-cyclohexyl-ethyl]-amide] | 0 | 2 |  | 
